Like-named read-outs stand apart in the source and are kept apart here.
How the values were obtained:
MYB = experiment: HiBiT protein abundance assay, MYB HiBiT K562 cell line; assay type: cell-based, human; conditions: HiBiT K562 cell line, 24 hours, top dose 10 μM; read-out: Effect on protein abundance, MYB (IC50 category)
Method in brief: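 K562 knock-in lines with endogenous HiBiT-tagged target, 10,000 cells/well in IMDM + FBS, treated 24 h at 37° C with 10-point 3-fold dilutions (top 10 μM final; DMSO ≤0.25%). Lytic Nano-Glo HiBiT luminescence normalized to untagged K562 baseline and DMSO controls; IC50 = concentration giving 50% abundance via four-parameter fit.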

Target C = experiment: HiBiT protein abundance assay, Target C (Promega Nano-Glo HiBiT Lytic Detection System, knock-in K562 cell line); assay type: cell-based, human; conditions: HiBiT K562 cell line, 24 hours, top dose 10 μM, read-out: Effect on protein abundance, Target C (IC50 category)
Method in brief: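 Knock-in K562 cells carrying HiBiT-tagged Target C, 10,000 per well, treated 24 h at 37 °C with 10-point threefold dilutions (top 10 μM final, ≤0.25% DMSO). Lytic HiBiT luminescence read; response normalised to unmodified K562 and DMSO controls, four-parameter fit interpolated at 50% for IC50.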

Structure (SMILES)	IC50 (MYB) [nM]	IC50 (Target C; Homo sapiens, K562, 24 h) [nM]	IC50 (Target C) [nM]
Cc1cn2nc(-c3cc(F)c4c(=O)n(C5CCNCC5)cnc4c3)cc(C)c2n1 [Compound 243]	< 100	< 100	–
Cc1cn2cc(-c3ccc4c(=O)n(C5CCNCC5)cnc4c3)c(C)cc2n1 [Compound 244]	> 10000	> 10000	–
Cc1nc2c(F)cc(-c3ccc4c(=O)n(C5CCNCC5)cnc4c3)cc2o1 [Compound 245]	100 to 1000	100 to 1000	–
Cc1cn2cc(-c3ccc4c(=O)n(C5CCN(C)CC5)cnc4c3)c(C)cc2n1 [Compound 246]	1000 to 10000	1000 to 10000	–
Cc1cn2cc(-c3ccc4c(c3)CCN(C3CCNCC3)C4=O)cc(F)c2n1 [Compound 247]	100 to 1000	1000 to 10000	–
Cc1cn2cc(-c3ccc4c(=O)n(C5CCNCC5)ncc4c3)cc(F)c2n1 [Compound 248]	< 100	100 to 1000	–
Cn1cc2cc(-c3ccc4c(=O)n(C5CCNCC5)ncc4c3)cc(F)c2n1 [Compound 249]	1000 to 10000	1000 to 10000	–
Cc1nc2c(F)cc(-c3ccc4c(=O)n(C5CCNCC5)ncc4c3)cc2o1 [Compound 250]	< 100	100 to 1000	–
Cc1cc(-c2ccc3c(=O)n(C4CCNCC4)ncc3c2)cc2cn(C)nc12 [Compound 251]	100 to 1000	100 to 1000	–
Cc1cn2cc(-c3ccc4c(c3)CCN(C3CCNCC3)C4=O)cc(C(F)(F)F)c2n1 [Compound 252]	1000 to 10000	> 10000	–

Results, then the molecule that gave them:

IC50 (MYB) [nM]	IC50 (Target C; Homo sapiens, K562, 24 h) [nM]	IC50 (Target C) [nM]	Structure (SMILES)
1000 to 10000	1000 to 10000	–	Cc1nc2c(F)cc(-c3ccc4c(=O)n(C5CCNCC5)ncc4c3)cc2s1 [Compound 253]
1000 to 10000	1000 to 10000	–	Cc1cn2cc(-c3ccc4c(=O)n(C5CCNCC5)ncc4c3)c(C)cc2n1 [Compound 254]
> 10000	> 10000	–	Cc1cn2cc(-c3ccc4c(=O)n(C5CCNCC5)ncc4c3)ncc2n1 [Compound 255]
100 to 1000	100 to 1000	–	Cc1cn2cc(-c3ccc4c(=O)n(C5CCNCC5)ncc4c3)cc(Cl)c2n1 [Compound 256]
100 to 1000	100 to 1000	–	Cc1cn2cc(-c3ccc4c(=O)n(C5CCNCC5)ncc4c3)cc(C)c2n1 [Compound 257]
100 to 1000	100 to 1000	–	Cc1cn2nc(-c3ccc4c(=O)n(C5CCNCC5)ncc4c3)nc2c(C)n1 [Compound 259]
100 to 1000	1000 to 10000	–	Cc1cn2nc(-c3ccc4c(=O)n(C5CCNCC5)ncc4c3)cc2c(C)n1 [Compound 260]
> 10000	> 10000	–	O=c1c2ccc(-c3cn[nH]c3)cc2cnn1C1CCNCC1 [Compound 261]
100 to 1000	1000 to 10000	–	Cc1cn2cc(-c3ccc4c(=O)n(C5CCNCC5)ncc4c3)cc(C(F)(F)F)c2n1 [Compound 262]
> 10000	1000 to 10000	–	Cn1cc2ccc(-c3ccc4c(=O)n(C5CCNCC5)ncc4c3)cc2n1 [Compound 263]
1000 to 10000	> 10000	–	Cc1cn2nc(-c3ccc4c(=O)n(C5CCNC5)ncc4c3)cc(C)c2n1 (stereo not shown) [Compound 264]
100 to 1000	100 to 1000	–	Cc1cn2nc(-c3ccc4c(=O)n(C5CCN(C)CC5)ncc4c3)cc(C)c2n1 [Compound 265]
100 to 1000	–	100 to 1000	Cc1cn2nc(-c3ccc4c(=O)n([C@@H]5CCNC6(CC6)C5)cnc4c3)cc(C)c2n1 [Compound 444]

Reference: patent US20250332173A1, “COMPOUNDS AND METHODS FOR MODULATING NUCLEIC ACID SPLICING” (REMIX THERAPEUTICS INC., priority 2021, published 2025)
